Experimental data published in US6414154B1, “Tetraisoquinoline derivatives as modulators of dopamine D3 receptors” (SmithKline Beecham p.l.c., priority 1998, dated 2002).
Counter-ions that a name gives are not always drawn.

Biological target: T1, human D3 dopamine receptors (Homo sapiens, UniProt P35462)
T1 construct: expressed in transfected cells; host or cells: CHO cells (crude cell membranes)
Assay: displacement of [125I] iodosulpride binding to cloned human D3 dopamine receptors expressed in CHO cells
Details: 0.1 nM [125I] iodosulpride, CHO cell membranes, 30 min at 37° C.; read-out: pKi at the D3 receptor (converted)
Method: The inhibition constants (Ki) of test compounds for displacement of [^125I] iodosulpride binding to human D3 dopamine receptors expressed in CHO cells were determined as follows. […] Cultures were grown as monolayers or in suspension in standard cell culture media. Cells were recovered by scraping (from monolayers) or by centrifugation (from suspension cultures), and were washed two or three times by suspension in phosphate buffered saline followed by collection by centrifugation. Cell pellets were stored frozen at −40° C. Crude cell membranes were prepared by homogenisation followed by high-speed centrifugation, and characterisation of cloned receptors achieved by radioligand binding.
Cell pellets were gently thawed at room temperature, and resuspended in about 20 volumes of ice-cold 50 mM Tris salts (pH 7.4@37° C.), 20 mM EDTA, 0.2 M sucrose. The suspension was homogenised using an Ultra-Turrax at full speed for 15 sec. The homogenate was centrifuged at 18,000 r.p.m for 20 min at 4° C. in a Sorvall RC5C centrifuge. The membrane pellet was resuspended in ice-cold 50 mM Tris salts (pH 7.4@37° C.), using an Ultra-Turrax, and recentrifuged at 18,000 r.p.m for 15 min at 4° C. in a Sorvall RC5C. The membranes were washed two more times with ice-cold 50 mM Tris salts (pH 7.4@37° C.). The final pellet was resuspended in 50 mM Tris salts (pH 7.4@37° C.), and the protein content determined using bovine serum albumin as a standard (Bradford, M. M. (1976) Anal. Biochem. 72, 248-254).
Crude cell membranes were incubated with 0.1 nM [^125I] iodosulpride (˜2000 Ci/mmol; Amersham, U. K.), and the test compound in a buffer containing 50 mM Tris salts (pH 7.4@37° C.), 120 mM NaCl, 5 mM KCl, 2 mM CaCl2, 1 mM MgCl2, 0.1% (w/v) bovine serum albumin, in a total volume of 1 ml for 30 min at 37° C. Following incubation, samples were filtered using a Brandel Cell Harvester, and washed three times with ice-cold 50 mM Tris salts (pH 7.4@37° C.), 120 mM NaCl, 5 mM KCl, 2 mM CaCl2, 1 mM MgCl2. The radioactivity on the filters was measured using a Cobra gamma counter (Canberra Packard). Non-specific binding was defined as the radioligand binding remaining after incubation in the presence of 100 μM iodosulpride. For competition curves, 14 concentrations (half-log dilutions) of competing cold drug were used. Competition curves were analysed simultaneously whenever possible using non-linear least-squares fitting procedures, capable of fitting one, two or three site models.

T1 sequence (P35462 whole entry): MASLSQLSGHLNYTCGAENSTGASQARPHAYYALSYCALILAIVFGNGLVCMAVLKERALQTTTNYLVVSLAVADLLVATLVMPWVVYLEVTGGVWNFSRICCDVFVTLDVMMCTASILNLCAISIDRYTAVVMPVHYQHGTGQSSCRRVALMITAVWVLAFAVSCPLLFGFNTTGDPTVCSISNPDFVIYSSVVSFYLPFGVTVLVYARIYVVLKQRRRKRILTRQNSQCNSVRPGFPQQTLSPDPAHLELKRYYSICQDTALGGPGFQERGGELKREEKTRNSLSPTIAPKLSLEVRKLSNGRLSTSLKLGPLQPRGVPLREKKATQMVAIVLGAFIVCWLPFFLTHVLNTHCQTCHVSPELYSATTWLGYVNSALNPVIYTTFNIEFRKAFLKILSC

| SMILES | Ki [nM] |
| --- | --- |
| CC(C)(C)c1ccc(CC(=O)N[C@H]2CC[C@H](CCN3CCc4cc(C#N)ccc4C3)CC2)cc1 [Example 21, trans-6-Cyano-2-(2-(1-(4-(4-t-butyl)phenylacetamido)cyclohexyl)-ethyl)-1,2,3,4-tetrahydroisoquinoline] | 3.16 to 12.6 |
| N#Cc1ccc2c(c1)CCN(CC[C@H]1CC[C@H](NC(=O)Cc3ccco3)CC1)C2 [Example 30, trans-6-Cyano-2-(2-(1-(4-(2-furanyl)acetamido)-cyclohexyl)ethyl)-1,2,3,4-tetrahydroisoquinoline] | 3.16 to 12.6 |
| N#Cc1ccc2c(c1)CCN(CC[C@H]1CC[C@H](NC(=O)Cc3cc4ccccc4s3)CC1)C2 [Example 29, trans-6-Cyano-2-(2-(1-(4-(2-benzothiophenyl)acetamido)-cyclohexyl)ethyl)-1,2,3,4-tetrahydroisoquinoline] | 3.16 to 12.6 |
| N#Cc1ccc2c(c1)CCN(CC[C@H]1CC[C@H](NC(=O)COc3ccccc3)CC1)C2 [Example 23, trans-6-Cyano-2-(2-(1-(4-phenoxyacetamido)cyclohexyl)ethyl)-1,2,3,4-tetrahydroisoquinoline] | 3.16 to 12.6 |
| N#Cc1ccc2c(c1)CCN(CC[C@H]1CC[C@H](NC(=O)Cc3ccc(I)cc3)CC1)C2 [Example 17, trans-6-Cyano-2-(2-(1-(4-(4-iodo)phenylacetamido)cyclohexyl)ethyl)-1,2,3,4-tetrahydroisoquinoline] | 3.16 to 12.6 |
| N#Cc1ccc(CC(=O)N[C@H]2CC[C@H](CCN3CCc4cc(C#N)ccc4C3)CC2)cc1 [Example 7, trans-6-Cyano-2-(2-(1-(4-(4-cyanophenyl)acetamido)cyclohexyl)ethyl)-1,2,3,4-tetrahydroisoquinoline] | 3.16 to 12.6 |
| N#Cc1ccc2c(c1)CCN(CC[C@H]1CC[C@H](NC(=O)CCc3ccc(F)cc3)CC1)C2 [Example 25, trans-6-Cyano-2-(2-(1-(4-(3-(4-fluoro)phenyl)propionamido)-cyclohexyl)ethyl)-1,2,3,4-tetrahydroisoquinoline] | 3.16 to 12.6 |
| N#Cc1ccc2c(c1)CCN(CC[C@H]1CC[C@H](NC(=O)Cc3ccc(Br)cc3)CC1)C2 [Example 16, trans-6-Cyano-2-(2-(1-(4-(4-bromo)phenylacetamido)cyclohexyl)-ethyl)-1,2,3,4-tetrahydroisoquinoline] | 3.16 to 12.6 |
| N#Cc1ccc2c(c1)CCN(CC[C@H]1CC[C@H](NC(=O)Cc3ccnc4ccccc34)CC1)C2 [Example 26, trans-6-Cyano-2-(2-(1-(4-(4-quinolyl)acetamido)-cyclohexyl)ethyl)-1,2,3,4-tetrahydroisoquinoline] | 3.16 to 12.6 |
| N#Cc1ccc2c(c1)CCN(CC[C@H]1CC[C@H](NC(=O)CCc3ccccc3)CC1)C2 [Example 8, trans-6-Cyano-2-(2-(1-(4-(3-phenyl)propionamido)cyclohexyl)ethyl)-1,2,3,4-tetrahydroisoquinoline] | 3.16 to 12.6 |
| N#Cc1ccc2c(c1)CCN(CC[C@H]1CC[C@H](NC(=O)Cc3cc4ccccc4o3)CC1)C2 [Example 31, trans-6-Cyano-2-(2-(1-(4-(2-benzofuranyl)acetamido)-cyclohexyl)ethyl)-1,2,3,4-tetrahydroisoquinoline] | 3.16 to 12.6 |
| N#Cc1ccc2c(c1)CCN(CC[C@H]1CC[C@H](NC(=O)Cc3ccc4ccccc4c3)CC1)C2 [Example 2, trans-6-Cyano-2-(2-(1-(4-(2-naphthyl)acetamido)cyclohexyl)ethyl)-1,2,3,4-tetrahydroisoquinoline] | 3.16 to 12.6 |
| N#Cc1ccc2c(c1)CCN(CC[C@H]1CC[C@H](NC(=O)Cc3ccsc3)CC1)C2 [Example 11, trans-6-Cyano-2-(2-(1-(4-(3-thienyl)acetamido)cyclohexyl)ethyl)-1,2,3,4-tetrahydroisoquinoline] | 3.16 to 12.6 |
| N#Cc1ccc2c(c1)CCN(CC[C@H]1CC[C@H](NC(=O)CCCc3ccccc3)CC1)C2 [Example 24, trans-6-Cyano-2-(2-(1-(4-(4-phenyl)butyramido)cyclohexyl)ethyl)-1,2,3,4-tetrahydroisoquinoline] | 3.16 to 12.6 |
| N#Cc1ccc2c(c1)CCN(CC[C@H]1CC[C@H](NC(=O)Cc3ccc(C(F)(F)F)cc3)CC1)C2 [Example 27, trans-6-Cyano-2-(2-(1-(4-(4-trifluoromethyl)phenylacetamido)-cyclohexyl)ethyl)-1,2,3,4-tetrahydroisoquinoline] | 3.16 to 12.6 |
| N#Cc1ccc2c(c1)CCN(CC[C@H]1CC[C@H](NC(=O)Cc3c[nH]c4ccccc34)CC1)C2 [Example 12, trans-6-Cyano-2-(2-(1-(4-(3-indolyl)acetamido)cyclohexyl)ethyl)-1,2,3,4-tetrahydroisoquinoline] | 3.16 to 12.6 |
| N#Cc1ccc2c(c1)CCN(CC[C@H]1CC[C@H](NC(=O)Cc3cccs3)CC1)C2 [Example 10, trans-6-Cyano-2-(2-(1-(4-(2-thienyl)acetamido)cyclohexyl)ethyl)-1,2,3,4-tetrahydroisoquinoline] | 3.16 to 12.6 |
| N#Cc1ccc2c(c1)CCN(CC[C@H]1CC[C@H](NC(=O)Cc3csc4ccccc34)CC1)C2 [Example 22, trans-6-Cyano-2-(2-(1-(4-(3-benzo[b]thienyl)acetarnido)cyclohexyl)-ethyl)-1,2,3,4-tetrahydroisoquinoline] | 3.16 to 12.6 |
| N#Cc1ccc2c(c1)CCN(CC[C@H]1CC[C@H](NC(=O)Cc3ccccn3)CC1)C2 [Example 15, trans-6-Cyano-2-(2-(1-(4-(2-pyridyl)acetamido)cyclohexyl)ethyl)-1,2,3,4-tetrahydroisoquinoline] | 3.16 to 12.6 |

The remaining lines, values ahead:

| Ki [nM] | SMILES |
| --- | --- |
| 3.16 to 12.6 | N#Cc1ccc2c(c1)CCN(CC[C@H]1CC[C@H](NC(=O)Cc3cccc(Br)c3)CC1)C2 [Example 18, trans-6-Cyano-2-(2-(1-(4-(3-bromo)phenylacetamido)cyclohexyl)-ethyl)-1,2,3,4-tetrahydroisoquinoline] |
| 3.16 to 12.6 | N#Cc1ccc2c(c1)CCN(CC[C@H]1CC[C@H](NC(=O)Cc3ccccc3)CC1)C2 [Example 1, trans-6-Cyano-2-(2-(1-(4-phenylacetamido)cyclohexyl)ethyl)-1,2,3,4-tetrahydroisoquinoline] |
| 3.16 to 12.6 | N#Cc1ccc2c(c1)CCN(CC[C@H]1CC[C@H](NC(=O)Cc3cc(F)ccc3F)CC1)C2 [Example 13, trans-6-Cyano-2-(2-(1-(4-(2,5-difluoro)phenylacetamido)cyclohexyl)-ethyl)-1,2,3,4-tetrahydroisoquinoline] |
| 3.16 to 12.6 | N#Cc1ccc2c(c1)CCN(CC[C@H]1CC[C@H](NC(=O)Cc3ccc(F)cc3F)CC1)C2 [Example 19, trans-6-Cyano-2-(2-(1-(4-(2,4-difluoro)phenylacetamido)cyclohexyl)-ethyl)-1,2,3,4-tetrahydroisoquinoline] |
| 3.16 to 12.6 | N#Cc1ccc2c(c1)CCN(CC[C@H]1CC[C@H](NC(=O)Cc3ccccc3F)CC1)C2 [Example 3, trans-6-Cyano-2-(2-(1-(4-(2-fluorophenyl)acetamido)cyclohexyl)ethyl)-1,2,3,4-tetrahydroisoquinoline] |
| 3.16 to 12.6 | N#Cc1ccc2c(c1)CCN(CC[C@H]1CC[C@H](NC(=O)Cc3cccc(F)c3)CC1)C2 [Example 4, trans-6-Cyano-2-(2-(1-(4-(3-fluorophenyl)acetamido)cyclohexyl)ethyl)-1,2,3,4-tetrahydroisoquinoline] |
| 3.16 to 12.6 | N#Cc1cccc(CC(=O)N[C@H]2CC[C@H](CCN3CCc4cc(C#N)ccc4C3)CC2)c1 [Example 6, trans-6-Cyano-2-(2-(1-(4-(3-cyanophenyl)acetamido)cyclohexyl)ethyl)-1,2,3,4-tetrahydroisoquinoline] |
| 3.16 to 12.6 | N#Cc1ccc2c(c1)CCN(CC[C@H]1CC[C@H](NC(=O)Cc3cc(F)cc(F)c3)CC1)C2 [Example 28, trans-6-Cyano-2-(2-(1-(4-(3,5-difluoro)phenylacetamido)-cyclohexyl)ethyl)-1,2,3,4-tetrahydroisoquinoline] |
| 3.16 to 12.6 | N#Cc1ccc2c(c1)CCN(CC[C@H]1CC[C@H](NC(=O)Cc3ccc(F)c(F)c3)CC1)C2 [Example 14, trans-6-Cyano-2-(2-(1-(4-(3,4-difluoro)phenylacetamido)cyclohexyl)-ethyl)-1,2,3,4-tetrahydroisoquinoline] |
| 3.16 to 12.6 | N#Cc1ccc2c(c1)CCN(CC[C@H]1CC[C@H](NC(=O)Cc3ccc(F)cc3)CC1)C2 [Example 32, trans-6-Cyano-2-(2-(1-(4-(4-fluorophenyl)acetamido)cyclohexyl)ethyl)-1,2,3,4-tetrahydroisoquinoline, Hydrochloride] |
